In patent publication US20120148638A1, “Steroid Solavates” (BREATH LIMITED, priority 2009, published 2012):

Key:
[1] = Dry Sympatec PSD analysis (particle size distribution); format: physicochemical; settings: after isolation
Source text: Particle size or particle diameter as used herein can be suitably determined by laser diffraction based methods, for example as described in ISO Standard 13320-1. Laser diffraction particle sizing apparatus such as the Malvern Mastersizer 2000™ can be used.

[2] = Effect of humidity on prolonged storage: 20% relative humidity for 48 hours; DVS, DSC, TGA, PSD, SEM; format: physicochemical; settings: for DVS mass plot, change of mass during storage: 20% RH, 48 hours; for Particle Size, cumulative distribution Q3 X10, post-storage sample / Particle Size, cumulative distribution Q3 X50, post-storage sample / Particle Size, cumulative distribution Q3 X90, post-storage sample: dry Sympatec PSD
Description: In order to evaluate the effect of humidity on prolonged storage, processed BDP heptane solvate was subjected to 20% relative humidity (RH) for 48 hours.
The sample recovered after storage was analysed by DSC, TGA, PSD and SEM.
In order to evaluate the effect of humidity on prolonged storage processed BDP hydrate was subjected to 20% relative humidity (RH) for 48 hours.

SMILES | Particle Size, cumulative distribution Q3 X10 [1] | Particle Size, cumulative distribution Q3 X50 [1] | Particle Size, cumulative distribution Q3 X90 [1] | Particle size distribution, result in words [1] | DVS mass plot, change of mass during storage ([2]; listed as processed BDP heptane) | Particle Size, cumulative distribution Q3 X10, post-storage sample ([2]; after 20% RH for 48 hours) | Particle Size, cumulative distribution Q3 X50, post-storage sample ([2]; after 20% RH for 48 hours) | Particle Size, cumulative distribution Q3 X90, post-storage sample ([2]; after 20% RH for 48 hours) | DSC trace of stored sample, thermal behaviour post-humidity treatment ([2]; after 20% RH for 48 hours, listed as BDP heptane solvate) | Time to steady state of sample mass (DVS) ([2]; 20% RH storage) | DVS mass plot, change of mass during storage [2] | DSC trace of stored sample, thermal behaviour post-humidity treatment ([2]; after 20% RH for 48 hours) | PSD variation of particle size after storage ([2]; after 20% RH for 48 hours)
CCC(=O)OCC(=O)[C@@]1(OC(=O)CC)[C@@H](C)C[C@H]2[C@@H]3CCC4=CC(=O)C=C[C@]4(C)[C@@]3(Cl)[C@@H](O)C[C@@]21C.O [Comparative Example 2, beclomethasone diproprionate, reference compound] | 1.78 μ | 8.10 μ | 15.10 μ | – | – | – | – | – | – | – | – | – | –
CCC(=O)OCC(=O)[C@@]1(OC(=O)CC)[C@@H](C)C[C@H]2[C@@H]3CCC4=CC(=O)C=C[C@]4(C)[C@@]3(Cl)[C@@H](O)C[C@@]21C.O [Comparative Example 1, beclomethasone diproprionate, reference compound] | 0.84 μ | 3.58 μ | 8.76 μ | mostly ˜4 μm particles alongside larger clusters or agglomerates larger than 20 μm | – | – | – | – | – | – | – | – | –
CCC(=O)OCC(=O)[C@@]1(OC(=O)CC)[C@@H](C)C[C@H]2[C@@H]3CCC4=CC(=O)C=C[C@]4(C)[C@@]3(Cl)[C@@H](O)C[C@@]21C.O [Example 1, beclomethasone diproprionate] | 0.69 μ | 2.41 μ | 4.67 μ | within the inhalation range | maintained full stability in terms of change of mass | 0.68 μ | 2.44 μ | 5.29 μ | no variation in the thermal behaviour | – | – | – | –
CCC(=O)OCC(=O)[C@@]1(OC(=O)CC)[C@@H](C)C[C@H]2[C@@H]3CCC4=CC(=O)C=C[C@]4(C)[C@@]3(Cl)[C@@H](O)C[C@@]21C.O [Example 3, beclomethasone diproprionate] | 0.51 μ | 1.35 μ | 3.17 μ | well within the inhalation range | – | 0.51 μ | 1.37 μ | 2.95 μ | – | about 1500 minutes | initially underwent considerable weight loss due to partial dehydration | no variation in the thermal behavior | no significant variation of particle size
